Literature values, collected in patent US4130647A, “Methods for treating congestive heart failure and ischemic heart disease” (priority 1977, dated 1978).

Tested on: patients with congestive heart failure
Conditions: cited from earlier work

Row | Structure (SMILES) | left ventricular filling pressures (heart failure) | side effects (in vivo) | Pulmonary Wedge Pressure (left ventricular failure) | right atrial pressure and forearm veins (left ventricular failure) | cardiac output (when left ventricular filling pressures fall below the upper limits of normal)
1 | NNc1nncc2ccccc12 [hydralazine] | does not usually lower left ventricular filling pressures | serologic side effects and leading to sodium retention | only slightly reduces pulmonary wedge pressure | does not reduce right atrial pressure or dilate forearm veins | –
2 | O=[N+]([O-])OCC(CO[N+](=O)[O-])O[N+](=O)[O-] [nitroglycerin] | – | – | – | – | A similar phenomenon is observed
